From patent EP4559916A1, “PHARMACEUTICALLY ACCEPTABLE SALT AND POLYMORPH OF SUBSTITUTED PYRAZOLO[1,5-A]PYRIMIDIN-7-AMINE DERIVATIVE AND USE THEREOF” (Shanghai Haiyan Pharmaceutical Technology Co., Ltd., priority 2022, dated 2024)
Values belong to the compound of their own block, whether it stands above or below them.

Columns and labels:
[1] = Hygroscopicity test according to Chinese Pharmacopoeia 2020, volume IV, 9103; format: physicochemical
From the text: (§1) Chinese Pharmacopoeia 2020, volume IV, 9103 Guidelines for Hygroscopicity Test of Drugs specifies the definition of hygroscopicity characteristics and hygroscopicity weight gain: (1) deliquescence: absorbing sufficient water to form a liquid; (2) extremely hygroscopicity: hygroscopicity weight gain of not less than 15%; (3) hygroscopicity: hygroscopicity weight gain of less than 15% but not less than 2%; (4) slightly hygroscopicity: hygroscopicity weight gain of less than 2% but not less than 0.2%; (5) no or almost no hygroscopicity: moisture gain is less than 0.2%.

[2] = Rough solubility in pH 4.5 and pH 6.8 buffers at room temperature; format: physicochemical
[3] = Stability test: changes in crystal form (XRPD) under high temperature and accelerated conditions; format: physicochemical; details: for changes in crystal form: 60°C (high temperature) and 40°C to 75% RH (accelerated), day 7, day 20, day 30, day 60
Procedure: X-ray powder diffraction (XRPD): in the present disclosure, the above crystalline or amorphous powder X-ray diffraction pattern was obtained by a known method in the art using an ARL Equinox3000 X-ray powder diffraction analyzer.
(§2) The changes in crystal form were detected at day 7, day 20, day 30, and day 60, respectively. […] (2) About 40 mg of phosphate crystal form I (prepared with reference to Example 1 of the present application) was weighed into a glass vial , and ethanol (1 mL) was added thereto, the glass vial was sealed and shaken at 50°C and 150 r/min for seven days, then centrifuged to collect the solid and the solvent was evaporated. […] Samples were taken and the related substances were determined. […]

[4] = In vivo pharmacokinetic test in mice; details: male ICR mice, gavage administration 10 mg/kg
Procedure: Test animals: healthy adult male ICR mice (weighing 30-40 g, 12 mice, intravenous injection group mice drinking water and diet ad libitum, gavage group fasting overnight, drinking water and diet ad libitum 4 h after administration), provided by Beijing Vital River Laboratory Animal Co. LTD;
Administration method and dosage: ICR mice were administered via caudal vein administration (2 mg/kg, 5% DMSO, pH 4.5 20% Captisol) and gavage administration (10 mg/kg, 5% DMSO, pH 4.5 20% Captisol).
Blood sampling: Animals meeting the experimental requirements were selected prior to administrating, weighed and labeled. Mice were bound prior to blood sampling, and each administrated mice was bled at a predetermined time point (caudal vein administration: blood samples were collected at 0.083 h, 0.25 h, 0.5 h, 1 h, 2 h, 4 h, 6 h, 7.5 h and 24 h after administration, totally 9 time points; gavage administration: blood samples were collected at 0.083 h, 0.25 h, 0.5 h, 1 h, 2 h, 4 h, 6 h, 7.5 h and 24 h after administration, totally 9 time points), and about 100 µL blood samples were collected through the orbit. The blood was transferred to a 1.5 mL test tube pre-added with K2EDTA, centrifuged for 4 min (8000 rpm, 4°C), and the plasma was removed. The whole process was completed within 15 min after blood collection. All samples were stored in a refrigerator at -20°C until sample analysis. LC/MS/MS method was used to determine drug concentrations.

[5] = system: MV4 -11 acute myeloid leukemia; assay: In vivo pharmacodynamic experiment, MV4-11 subcutaneous xenograft; set-up: species or system BALB/c nude mice; details: Oral, Once daily
Procedure: In vivo pharmacodynamic experiments were performed on BALB/c nude mice subcutaneously implanted with MV4 -11 acute myeloid leukemia […] xenograft (CDX) based on human tumor cell lines.
Protocol: BALB/c nude mice, female, 6-10 weeks old, weighing approximately 20-23 grams, were maintained in a special pathogen-free environment and in individual ventilated cages (5 mice per cage, 2 cages of 10). All cages, bedding and water were disinfected prior to use. All animals had free access to standard certified commercial laboratory diets. […] Each mouse was implanted with tumor cells subcutaneously in the right flank (1×10^7 0.1 ml+Matrigel 0.1 ml) for tumor growth. When the average tumor volume reached about 165 cubic mm, randomization was performed according to body weight and tumor volume, and administration was started. The test compound was administered orally by gavage daily. Antitumor efficacy was determined by dividing the average tumor increase volume of animals treated with the compound by the average tumor increase volume of untreated animals.
Tumor volume was measured twice weekly with a two-dimensional caliper, and volumes were measured in cubic millimeters. Tumor volume TV=0.5a×b^2. Wherein, a is the long diameter of the tumor and b is the short diameter of the tumor.
T/C(%) is the percentage of the relative tumor volume (RTV) between the treatment group and the control group at a certain time point. The calculation Formula is as follows: T/C% = TRTV/CRTV×100% (TRTV: mean RTV of treatment group; CRTV: mean RTV of vehicle control group; RTV=Vt/V0, V0 is tumor volume of the animal at grouping, Vt is tumor volume of the animal after treatment). mpk is mg/kg body weight.
Body weight change (%) of tumor-bearing animals was calculated as follows: (body weight at measurement - body weight at grouping)/body weight at grouping × 100.

[6] = Solubility in 0.1 mol/L hydrochloric acid and pH 6.8 phosphate buffer, 24 h at 37°C; format: physicochemical; details: for solubility: 1440 min
[7] = Crystal form conversion: suspension shaking in ethanol; format: physicochemical; details: ethanol (1 mL), sealed, shaken at 50°C and 150 r/min for seven days
Procedure: as §2

[8] = Dynamic vapor sorption (DVS) measurement; format: physicochemical; details: for weight gain due to moisture absorption: DVS, 80% RH, 25°C; for hygroscopicity: from DVS weight gain at 80% RH
Procedure: Dynamic vapor sorption (DVS) curve: a dynamic vapor sorption curve was collected on a DVS Intrinsic of SMS (Surface Measurement Systems). The relative humidity at 25°C was calibrated using the deliquescent points of LiCl, Mg(NO3)2 and KCl.
as §1

[9] = Chemical stability: related substances after 80°C for one week with water added; format: physicochemical; details: for Phosphate content (80°C, 7 d): 25 mg sample with 5 mg water, oven at 80°C
[10] = physchem; details: water
[11] = target: T1, CDK9/CycT (Homo sapiens, UniProt P50750); assay: LANCE Ultra kinase activity inhibition test, CDK9; format: biochemical; details: ATP 10 µM
T1 construct: purchased Carna Bioscience 04-110
From the text: In the following LANCE Ultra test method, kinase reagents were purchased from Carna Bioscience, reaction substrates and detection reagents were purchased from Perkin Elmer, and the remaining reagents were purchased from Thermo scientific.
The LANCE Ultra method was used to determine the inhibitory effect of the test substance on the kinase activity of CDK1/CycB (Carna bioscience, #04-102), CDK2/ CycA (Carna bioscience, #04-103), CDK9/CycT (Carna bioscience, #04-110).
Each kinase in the test included three test groups: background group (Blank), non-inhibition group (PC) and compound test group (Test). […]
After the addition of the test solution, it was placed on a shaker and incubated at room temperature for 1 h in the dark. […] The 665 nm/615 nm values (hereinafter referred to as the Ratio value) were calculated for all groups, and the inhibition rate was calculated based on the Ratio value of each group; 2. […] XLFIT 5.0 software (IDBS, UK) was used for fitting, with logarithmic values of compound concentrations as the X axis and inhibition rates as the Y axis, and IC50 values of compounds were calculated using a four-parameter model.

[12] = listed as phosphate crystal form I of the compound of Formula (I)
[13] = listed as phosphate crystal form II of the compound of Formula (I)

T1 sequence (P50750 whole entry): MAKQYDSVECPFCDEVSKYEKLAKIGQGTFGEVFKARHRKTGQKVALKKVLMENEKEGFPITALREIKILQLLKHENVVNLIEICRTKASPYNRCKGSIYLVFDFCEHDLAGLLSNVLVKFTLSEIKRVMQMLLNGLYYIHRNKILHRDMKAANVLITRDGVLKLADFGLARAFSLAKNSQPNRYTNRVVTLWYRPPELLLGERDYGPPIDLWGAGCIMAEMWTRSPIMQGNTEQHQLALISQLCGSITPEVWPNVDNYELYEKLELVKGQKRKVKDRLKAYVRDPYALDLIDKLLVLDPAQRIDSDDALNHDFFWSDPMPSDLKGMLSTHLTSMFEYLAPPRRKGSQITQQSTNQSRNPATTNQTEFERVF
T1 sequence (O60563 whole entry partner): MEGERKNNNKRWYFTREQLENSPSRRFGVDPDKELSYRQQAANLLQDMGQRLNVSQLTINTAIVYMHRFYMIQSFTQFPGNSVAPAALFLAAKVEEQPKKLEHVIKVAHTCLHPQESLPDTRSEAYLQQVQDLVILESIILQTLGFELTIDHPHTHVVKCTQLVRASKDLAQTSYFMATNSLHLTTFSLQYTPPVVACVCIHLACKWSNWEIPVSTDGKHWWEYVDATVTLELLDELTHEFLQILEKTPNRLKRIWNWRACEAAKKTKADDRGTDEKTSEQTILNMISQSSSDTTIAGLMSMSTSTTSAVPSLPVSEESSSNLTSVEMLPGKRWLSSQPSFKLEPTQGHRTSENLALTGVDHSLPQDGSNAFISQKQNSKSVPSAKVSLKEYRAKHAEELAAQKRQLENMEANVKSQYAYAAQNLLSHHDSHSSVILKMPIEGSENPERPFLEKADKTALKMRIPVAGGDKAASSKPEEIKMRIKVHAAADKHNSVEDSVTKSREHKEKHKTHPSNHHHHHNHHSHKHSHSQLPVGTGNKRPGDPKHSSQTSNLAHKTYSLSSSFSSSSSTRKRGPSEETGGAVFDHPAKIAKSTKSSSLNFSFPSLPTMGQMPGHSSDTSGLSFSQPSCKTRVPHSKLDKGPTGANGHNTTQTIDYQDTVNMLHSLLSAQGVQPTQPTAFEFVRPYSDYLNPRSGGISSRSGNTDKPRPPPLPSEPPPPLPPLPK

- solubility ([2]; acetate buffer, pH 4.5, rough solubility, pH 4.5 buffer (acetic acid-sodium acetate system), read-out: Solubility in pH 4.5 buffer): ≤ 33 mg/mL
- solubility ([2]; phosphate buffer, pH 6.8, rough solubility, pH 6.8 buffer (sodium dihydrogen phosphate-sodium hydroxide system), read-out: Solubility in pH 6.8 buffer): ≤ 24.5 mg/mL
- solubility at 24 h ([6]; 0.1n hcl): 22.5 mg/mL
- solubility at 24 h ([6]; phosphate buffer, pH 6.8, pH 6.8 phosphate buffer): 22.5 mg/mL
- crystal form of the obtained solid (XRPD) [7]: phosphate crystal form II
- weight gain due to moisture absorption [8, 12]: 9%
- changes in crystal form [3]: no obvious changes
- change of XRPD pattern ([3]; high temperature conditions, 7 days and 30 days, Figure 16): no obvious change
- Phosphate content (0 d) [9]: 99.64
- Phosphate content (80°C, 7 d) [9]: 98.66
SMILES: C[C@H](c1cc(N[C@H]2CC[C@H](N)C2)n2nccc2n1)C1CCC1 [Phosphate crystal form I]
- hygroscopicity [8, 12]: hygroscopicity (hygroscopicity weight gain of less than 15% but not less than 2%)

- solubility [10]: ≤ 26.6 mg/mL
SMILES: C[C@H](c1cc(N[C@H]2CC[C@H](N)C2)n2nccc2n1)C1CCC1 [phosphate]

- AUC(0-t) ([4]; mouse, plasma, po, read-out: Area under the curve for oral administration AUC0-t): 2960 ng·h/mL
- Cmax ([4]; mouse, plasma, po, read-out: Maximum oral plasma concentration Cmax): 379 ng/mL
- IC50 [11]: 0.012 µM
SMILES: C[C@H](c1cc(N[C@H]2CC[C@H](N)C2)n2nccc2n1)C1CCC1 [The compound of Formula (I), (1S,3S)-N1-(5-((S)-1-cyclobutylethyl)pyrazolo[1,5-a]pyrimidin-7-yl)cyclopentan-1,3-diamine]
- Mean tumor weight ([5]; 12.5 mpk): 0.17 g
- T/C ([5]; 12.5 mpk): 21.50%
- Mean tumor weight ([5]; 25 mpk): 0.01 g
- T/C ([5]; 25 mpk): 1.40%

- solubility ([6]; 0.1N HCl): 39.14 mg/mL
- solubility ([6]; pH 6.8 phosphate buffer): 33.63 mg/mL
- weight gain due to moisture absorption [8]: 0.45%
- weight gain due to moisture absorption [8, 13]: 0.45%
- hygroscopicity [8]: slight hygroscopicity
- hygroscopicity [8, 13]: slight hygroscopicity
- changes in crystal form [3]: no obvious changes
- Phosphate content (0 d) [9]: 99.64
- Phosphate content (80°C, 7 d) [9]: 98.73
SMILES: C[C@H](c1cc(N[C@H]2CC[C@H](N)C2)n2nccc2n1)C1CCC1 [Phosphate crystal form II]

The next lines start with the compound.

SMILES: C[C@H](c1cc(N[C@H]2CC[C@H](N)C2)n2nccc2n1)C1CCC1 [L-tartrate]
- hygroscopicity [1]: slight hygroscopicity

SMILES: C[C@H](c1cc(N[C@H]2CC[C@H](N)C2)n2nccc2n1)C1CCC1 [L-tartrate crystal form I]
- Solubility in pH 4.5 buffer ([2]; rough solubility, pH 4.5 buffer (acetic acid-sodium acetate system)): ≤43.3 mg/mL
- Solubility in pH 6.8 buffer ([2]; rough solubility, pH 6.8 buffer (sodium dihydrogen phosphate-sodium hydroxide system)): ≤21.8 mg/mL
- changes in crystal form [3]: no obvious changes
- change of XRPD pattern ([3]; accelerated conditions (40°C-75% RH), 7 days and 2 months (60 days), FIG. 15): no obvious change
- change of XRPD pattern ([3]; high temperature conditions (60°C), 7 days and 2 months (60 days)): no obvious change

SMILES: CCC(CC)c1cc(N[C@H]2CC[C@H](N)C2)n2nccc2n1 [Compound D, reference compound]
- Area under the curve for oral administration AUC0-t [4]: 1191 ng·h/mL
- Maximum oral plasma concentration Cmax [4]: 433 ng/mL
- Mean tumor weight ([5]; 12.5 mpk): 0.35 g
- T/C ([5]; 12.5 mpk): 45.04%
- Mean tumor weight ([5]; 25 mpk): 0.02 g
- T/C ([5]; 25 mpk): 2.04%
